{"source": "ChEMBL document CHEMBL1201862", "about": "“PubChem BioAssay data set” (2004)", "test_in_all_cases": "NCI tumour cell line growth inhibition, 48 h", "key": {"SF-539": {"system": "SF-539"}, "RXF 393": {"system": "RXF 393"}, "NCI-H460": {"system": "NCI-H460"}, "CCRF-CEM": {"system": "CCRF-CEM"}, "Malme-3M": {"system": "Malme-3M"}, "T47D": {"system": "T47D"}, "SK-MEL-28": {"system": "SK-MEL-28"}, "SK-OV-3": {"system": "SK-OV-3"}, "SK-MEL-2": {"system": "SK-MEL-2"}, "PC-3": {"system": "PC-3"}, "UACC-62": {"system": "UACC-62"}, "CAKI-1": {"system": "CAKI-1"}, "TK-10": {"system": "TK-10"}, "DU-145": {"system": "DU-145"}, "OVCAR-5": {"system": "OVCAR-5"}, "HOP-92": {"system": "HOP-92"}, "COLO 205": {"system": "COLO 205"}, "NCI-H226": {"system": "NCI-H226"}, "SW-620": {"system": "SW-620"}, "HOP-62": {"system": "HOP-62"}, "NCI-H522": {"system": "NCI-H522"}, "SF-295": {"system": "SF-295"}, "HCT-15": {"system": "HCT-15"}, "UO-31": {"system": "UO-31"}, "SK-MEL-5": {"system": "SK-MEL-5"}, "MDA-MB-231": {"system": "MDA-MB-231"}, "MCF7": {"system": "MCF7"}, "SNB-75": {"system": "SNB-75"}, "LOX IMVI": {"system": "LOX IMVI"}, "ACHN": {"system": "ACHN"}, "MDA-N": {"system": "MDA-N"}, "SR": {"system": "SR"}, "IGROV-1": {"system": "IGROV-1"}, "UACC-257": {"system": "UACC-257"}, "786-0": {"system": "786-0"}, "A549": {"system": "A549"}, "M14": {"system": "M14"}, "U-251": {"system": "U-251"}, "HL-60": {"system": "HL-60"}, "OVCAR-3": {"system": "OVCAR-3"}, "OVCAR-4": {"system": "OVCAR-4"}, "SN12C": {"system": "SN12C"}, "HT-29": {"system": "HT-29"}, "OVCAR-8": {"system": "OVCAR-8"}, "NCI-H23": {"system": "NCI-H23"}, "NCI/ADR-RES": {"system": "NCI/ADR-RES"}, "SF-268": {"system": "SF-268"}, "EKVX": {"system": "EKVX"}, "HCT-116": {"system": "HCT-116"}, "K562": {"system": "K562"}, "MOLT-4": {"system": "MOLT-4"}, "MDA-MB-435": {"system": "MDA-MB-435"}, "SNB-19": {"system": "SNB-19"}, "HCC 2998": {"system": "HCC 2998"}, "A498": {"system": "A498"}}, "note": "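Step 1: Grow cells in 96-well plates. Step 2: Expose to compound for 48 hours at 5 concentrations. Step 3: Interpolate endpoints linearly; if unreached, use highest concentration. At the GI50, growth is halved.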 Activity calls are given as the source filed them. No stated cut-off is given here; in the data, active = GI50 up to about 1.1 µM and inactive = higher."}
{"compound": "O=c1c2ccccc2nc(N/N=C/c2ccc(Cl)cc2)n1-c1ccccc1", "values": [{"measurement": "GI50", "setting": "SF-539", "value": "97.3 µM (inactive)"}, {"measurement": "GI50", "setting": "RXF 393", "value": "87.1 µM (inactive)"}, {"measurement": "GI50", "setting": "NCI-H460", "value": "75 µM (inactive)"}, {"measurement": "GI50", "setting": "CCRF-CEM", "value": "> 100 µM (inactive)"}, {"measurement": "GI50", "setting": "Malme-3M", "value": "> 100 µM (inactive)"}, {"measurement": "GI50", "setting": "T47D", "value": "82.6 µM (inactive)"}, {"measurement": "GI50", "setting": "SK-MEL-28", "value": "> 100 µM (inactive)"}, {"measurement": "GI50", "setting": "SK-OV-3", "value": "> 100 µM (inactive)"}, {"measurement": "GI50", "setting": "SK-MEL-2", "value": "17.5 µM (inactive)"}, {"measurement": "GI50", "setting": "PC-3", "value": "49.5 µM (inactive)"}, {"measurement": "GI50", "setting": "UACC-62", "value": "> 100 µM (inactive)"}, {"measurement": "GI50", "setting": "CAKI-1", "value": "> 100 µM (inactive)"}, {"measurement": "GI50", "setting": "TK-10", "value": "> 100 µM (inactive)"}, {"measurement": "GI50", "setting": "DU-145", "value": "> 100 µM (inactive)"}, {"measurement": "GI50", "setting": "OVCAR-5", "value": "> 100 µM (inactive)"}, {"measurement": "GI50", "setting": "HOP-92", "value": "98.6 µM (inactive)"}, {"measurement": "GI50", "setting": "COLO 205", "value": "> 100 µM (inactive)"}, {"measurement": "GI50", "setting": "NCI-H226", "value": "> 100 µM (inactive)"}, {"measurement": "GI50", "setting": "SW-620", "value": "> 100 µM (inactive)"}, {"measurement": "GI50", "setting": "HOP-62", "value": "38.1 µM (inactive)"}, {"measurement": "GI50", "setting": "NCI-H522", "value": "67 µM (inactive)"}, {"measurement": "GI50", "setting": "SF-295", "value": "> 100 µM (inactive)"}, {"measurement": "GI50", "setting": "HCT-15", "value": 89.9, "unit": "µM"}, {"measurement": "GI50", "setting": "UO-31", "value": "62.4 µM (inactive)"}, {"measurement": "GI50", "setting": "SK-MEL-5", "value": "> 100 µM (inactive)"}, {"measurement": "GI50", "setting": "MDA-MB-231", "value": "93.3 µM (inactive)"}, {"measurement": "GI50", "setting": "MCF7", "value": "> 100 µM (inactive)"}, {"measurement": "GI50", "setting": "SNB-75", "value": "0.0269 µM (active)"}, {"measurement": "GI50", "setting": "LOX IMVI", "value": "> 100 µM (inactive)"}, {"measurement": "GI50", "setting": "ACHN", "value": "> 100 µM (inactive)"}, {"measurement": "GI50", "setting": "MDA-N", "value": "50.8 µM (inactive)"}, {"measurement": "GI50", "setting": "SR", "value": "> 100 µM (inactive)"}, {"measurement": "GI50", "setting": "IGROV-1", "value": "> 100 µM (inactive)"}, {"measurement": "GI50", "setting": "UACC-257", "value": "> 100 µM (inactive)"}, {"measurement": "GI50", "setting": "786-0", "value": "> 100 µM (inactive)"}, {"measurement": "GI50", "setting": "A549", "value": "> 100 µM (inactive)"}, {"measurement": "GI50", "setting": "M14", "value": "> 100 µM (inactive)"}, {"measurement": "GI50", "setting": "U-251", "value": "46.6 µM (inactive)"}, {"measurement": "GI50", "setting": "HL-60", "value": "> 100 µM (inactive)"}, {"measurement": "GI50", "setting": "OVCAR-3", "value": "> 100 µM (inactive)"}, {"measurement": "GI50", "setting": "OVCAR-4", "value": "21.1 µM (inactive)"}, {"measurement": "GI50", "setting": "SN12C", "value": "> 100 µM (inactive)"}, {"measurement": "GI50", "setting": "HT-29", "value": "> 100 µM (inactive)"}, {"measurement": "GI50", "setting": "OVCAR-8", "value": "77.1 µM (inactive)"}, {"measurement": "GI50", "setting": "NCI-H23", "value": "> 100 µM (inactive)"}, {"measurement": "GI50", "setting": "NCI/ADR-RES", "value": "> 100 µM (inactive)"}, {"measurement": "GI50", "setting": "SF-268", "value": "80.2 µM (inactive)"}, {"measurement": "GI50", "setting": "EKVX", "value": "> 100 µM (inactive)"}, {"measurement": "GI50", "setting": "HCT-116", "value": "> 100 µM (inactive)"}, {"measurement": "GI50", "setting": "K562", "value": "> 100 µM (inactive)"}, {"measurement": "GI50", "setting": "MOLT-4", "value": "> 100 µM (inactive)"}, {"measurement": "GI50", "setting": "MDA-MB-435", "value": "> 100 µM (inactive)"}, {"measurement": "GI50", "setting": "SNB-19", "value": "36.5 µM (inactive)"}, {"measurement": "GI50", "setting": "HCC 2998", "value": "> 100 µM (inactive)"}, {"measurement": "GI50", "setting": "A498", "value": "> 100 µM (inactive)"}]}
